Measured values as given in patent US4994582A, “Novel antibiotic NK130119” (Nippon Kayaku Kabushiki Kaisha, priority 1989, dated 1991).
In brackets after ≈: the same amount, converted by molar mass. Read-outs that look alike come from different tables or passages of the source.

Tests used:
[1] = test system: mouse pulmonary cancer cells (LL); experiment: growth-inhibitory effect on mouse pulmonary cancer cells, dye exclusion method; type: cell-based; conditions: 72 h, three days
Experimental: the growth-inhibitory effects of the compound of the present invention on mouse pulmonary cancer cells (LL) and human plumonary cancer cells (PC-3) were examined.
A 96-well plate was inoculated with mouse polmonary cancer cells at a ratio of 8.0×10^2 cells per well, while another 96-well plate was inoculated with human pulmonary cancer cells at a ratio of 2.5×10^3 per well. These cells were incubated in an incubator at 37° C. under 5% CO2 for 24 hours. Then the compound of the present invention was added thereto at various concentrations. Cells in each well were counted by the dye exclusion method three days after the addition to thereby evaluate the growth-inhibitory effect of the test compound on the mouse pulmonary cancer cells (LL) and that on the human pulmonary cancer cells (PC-3).

[2] = test system: larva of mosquito culices (a sensitive species); experiment: insecticidal action, mortality of mosquito larvae; type: in vivo; conditions: read-out: Mortality rate, larvae of mosquito
Experimental: The insecticidal action of the compound of the present invention was examined by the following method.
(2) A larva of mosquito culices (a sensitive species) was used as a test vermin, and the mortality rate thereof was assayed according to an ordinary method (described on page 109 of "Noyaku Jikkenho I, Sacchuzaihen" published by Soft Science, Inc.).
Specifically, 10 ml of well water was placed in a vessel (15-ml Petridish), and 5 larvae of mosquito culices (the third stage) were released in the vessel. A solution of the compound of the present invention in acetone (0.1%) was added thereto so as to have a predetermined concentration. The vessel was allowed to stand in a thermostatic chamber (26°±1° C.) for a predetermined period of time, and the life and death of the test vermin were investigated.

[3] = test system: HeLa S3 cells; experiment: growth-inhibitory effect on HeLa S3 culture cells, dye exclusion method; type: cell-based; conditions: Homo sapiens, 72 h
Experimental: The growth-inhibitory effect of the compound of the present invention on HeLa S3 culture cells was examined. A 96-well plate was inoculated with HeLa S3 cells at a ratio of 1.5×10^3 cells/well and incubated. One day after the inoculation, the compound of the present invention was added to the culture medium at various concentrations. Three days after the addition, cells in each well were counted by the dye exclusion method to thereby evaluate the growth-inhibitory effect of the compound of the present invention at various concentrations on HeLa S3 cells.

[4] = test system: Botrytis cinera; experiment: antifungal spectrum on potato sucrose agar medium; type: cell-based; conditions: read-out: Minimum inhibitory concentration
Description: the antifungal spectrum of the compound of the present invention was examined.
(*) potato sucrose agar medium was used.

[5] = test system: mouse colonic cancer cells (Colon 26); experiment: growth-inhibitory effect on mouse colonic cancer cells, dye exclusion method; type: cell-based
Experimental: (§1) The growth-inhibitory effects of the compound of the present invention on mouse colonic cancer cells (Colon 26) and human colonic cancer cells (SW1116) were examined. A 96-well plate was inoculated with mouse colonic cancer cells at a ratio of 1.5×10^3 cells per well, while another 96-well plate was inoculated with human colonic cancer cells at a ratio of 3.0×10^3 per well. These cells were incubated in an incubator at 37° C. under 5% CO2 for 24 hours. Then the compound of the present invention was added thereto at various concentrations. Cells in each well were counted by the dye exclusion method 65 hours and 96 hours after the addition to thereby evaluate the growth-inhibitory effect of the test compound on the mouse colonic cancer cells and that on the human colonic cancer cells.

[6] = test system: mouse melanoma cells (B16); experiment: growth-inhibitory effect on mouse melanoma cells, dye exclusion method; type: cell-based; conditions: 72 hours
Experimental: The growth-inhibitory effects of the compound of the present invention on mouse melanoma cells (B16) and human melanoma cells (G361) were examined. A 96-well plate was inoculated with mouse melanoma cells at a ratio of 1.5×10^3 cells per well, while another 96-well plate was inoculated with human melanoma cells at a ratio of 1.0×10^3 per well. These cells were incubated in an incubator at 37° C. under 5% CO2. Then the compound of the present invention was added thereto at various concentrations. Cells in each well were counted by the dye exclusion method 72 hours after the addition to thereby evaluate the growth-inhibitory effect of the test compound on the mouse melanoma cells and that on the human melanoma cells at various concentrations.

[7] = test system: human colonic cancer cells (SW1116); experiment: growth-inhibitory effect on human colonic cancer cells, dye exclusion method; type: cell-based; conditions: SW 1116
Experimental: as §1

[8] = acute toxicity on mice; conditions: mouse, in vivo, ip
[9] = test system: vascularization by the Ehrlich asoites tumor cells crude extract; experiment: vascularization-inhibitory effect, rabbit corneal assay; type: in vivo; conditions: slow-releasing pellet in cornea
Experimental: The vascularization-inhibitory effect of the compound of the present invention was examined by rabbit corneal assay reported by M. A. Gimbrone et al. (J. National Cancer Inst., 52, 412 (1974)). Namely, the center of the cornea of the eye of a rabbit was incised with a knife at a length of approximately 2 mm to thereby form a pouch. Then a slow-releasing pellet containing 100 μg of a crude extract of Ehrlich asoites tumor cells, which had been preliminarily prepared according to a method proposed by R. Langer et al. (Nature, 263, 797 ([…])), was introduced into the pouch. Further another slow-releasing pellet containing 0.3 to 81 μg of the compound of the present invention was introduced there into so as to contact these pellets with each other.

Molecule CCC1/C=C/C=C/CC(C)C(O)C(C)(O)C(=O)C(C)C(O)C(C)C(=O)C(C)C(O)C(C)/C=C/C(=O)OC2C(C)C(CC1)OC1(CCC(C)C(CC(C)O)O1)C2CC (stereo not shown) [NK130119] has an IC50 ([1]; mouse pulmonary cancer cells (LL)) of 0.0085 µg/mL (≈ 0.0106 µM), an inhibition at 0.0006 µg/mL ([1]; mouse pulmonary cancer cells, 0.0006 μg/ml, read-out: Growth-inhibitory ratio) of 21.6% and an inhibition at 0.0024 µg/mL ([1]; mouse pulmonary cancer cells, 0.0024 μg/ml, read-out: Growth-inhibitory ratio) of 14.5%. The inhibition at 0.0098 µg/mL ([1]; mouse pulmonary cancer cells, 0.0098 μg/ml, read-out: Growth-inhibitory ratio) was 54.4%, the inhibition at 0.039 µg/mL ([1]; mouse pulmonary cancer cells, 0.039 μg/ml, read-out: Growth-inhibitory ratio) was 61% and the inhibition at 0.156 µg/mL ([1]; mouse pulmonary cancer cells, 0.156 μg/ml, read-out: Growth-inhibitory ratio) was 66.2%. The inhibition at 0.625 µg/mL ([1]; mouse pulmonary cancer cells, 0.625 μg/ml, read-out: Growth-inhibitory ratio) was 68.8%, the inhibition at 2.5 µg/mL ([1]; mouse pulmonary cancer cells, 2.5 μg/ml, read-out: Growth-inhibitory ratio) was 83.7% and the inhibition at 10 µg/mL ([1]; mouse pulmonary cancer cells, 10 μg/ml, read-out: Growth-inhibitory ratio) was 102%. For the same molecule, the mortality at 1 ppm ([2]; 48 h, after 2 days) was 73%, the mortality at 10 ppm ([2]; 48 h, after 2 days) was 100% and the mortality at 1 ppm ([2]; 144 h, after 6 days) was 80%. For the same molecule, the mortality at 10 ppm ([2]; 144 h, after 6 days) was 100%, the mortality at 1 ppm ([2]; 216 h, after 9 days) was 80% and the mortality at 10 ppm ([2]; 216 h, after 9 days) was 100%. It also gave an inhibition at 0.039 µg/mL ([3]; HeLa S3, 0.039 μg/ml, three days, read-out: Growth-inhibitory ratio) of 40%, an inhibition at 0.156 µg/mL ([3]; HeLa S3, 0.156 μg/ml, three days, read-out: Growth-inhibitory ratio) of 43.5% and an inhibition at 0.625 µg/mL ([3]; HeLa S3, 0.625 μg/ml, three days, read-out: Growth-inhibitory ratio) of 47.5%. For the same molecule, the inhibition at 2.5 µg/mL ([3]; HeLa S3, 2.5 μg/ml, three days, read-out: Growth-inhibitory ratio) was 55.3%, the inhibition at 10 µg/mL ([3]; HeLa S3, 10 μg/ml, three days, read-out: Growth-inhibitory ratio) was 83.6% and the IC50 ([3]; HeLa S3 cells, three days after addition) was 0.987 µg/mL (≈ 1.23 µM). For the same molecule, the MIC [4] was 6.25 µg/mL (≈ 7.76 µM), the inhibition at 0.0006 µg/mL ([5]; Mus musculus, Colon 26, 0.0006 μg/ml, read-out: Growth-inhibitory ratio) was 2.54% and the inhibition at 0.0024 µg/mL ([5]; Mus musculus, Colon 26, 0.0024 μg/ml, read-out: Growth-inhibitory ratio) was 4.17%. The inhibition at 0.0098 µg/mL ([5]; Mus musculus, Colon 26, 0.0098 μg/ml, read-out: Growth-inhibitory ratio) was 41%, the inhibition at 0.039 µg/mL ([5]; Mus musculus, Colon 26, 0.039 μg/ml, read-out: Growth-inhibitory ratio) was 87.6% and the inhibition at 0.156 µg/mL ([5]; Mus musculus, Colon 26, 0.156 μg/ml, read-out: Growth-inhibitory ratio) was 90.3%. It also gave an inhibition at 0.625 µg/mL ([5]; Mus musculus, Colon 26, 0.625 μg/ml, read-out: Growth-inhibitory ratio) of 88.9%, an inhibition at 2.5 µg/mL ([5]; Mus musculus, Colon 26, 2.5 μg/ml, read-out: Growth-inhibitory ratio) of 96% and an inhibition at 10 µg/mL ([5]; Mus musculus, Colon 26, 10 μg/ml, read-out: Growth-inhibitory ratio) of 101%. For the same molecule, the IC50 ([5]; mouse colonic cancer cells (Colon 26), cells counted 65 hours and 96 hours after addition) was less than 0.025 µg/mL, the inhibition at 0.0006 µg/mL ([6]; Mus musculus, B16, 0.0006 μg/ml, read-out: Growth-inhibitory ratio) was 0.63% and the inhibition at 0.0024 µg/mL ([6]; Mus musculus, B16, 0.0024 μg/ml, read-out: Growth-inhibitory ratio) was 0.63%. It also gave an inhibition at 0.0097 µg/mL ([6]; Mus musculus, B16, 0.0097 μg/ml, read-out: Growth-inhibitory ratio) of 1.32%, an inhibition at 0.039 µg/mL ([6]; Mus musculus, B16, 0.039 μg/ml, read-out: Growth-inhibitory ratio) of 34.2% and an inhibition at 0.156 µg/mL ([6]; Mus musculus, B16, 0.156 μg/ml, read-out: Growth-inhibitory ratio) of 45.9%. The inhibition at 0.625 µg/mL ([6]; Mus musculus, B16, 0.625 μg/ml, read-out: Growth-inhibitory ratio) was 49.7%, the inhibition at 2.5 µg/mL ([6]; Mus musculus, B16, 2.5 μg/ml, read-out: Growth-inhibitory ratio) was 79% and the inhibition at 10 µg/mL ([6]; Mus musculus, B16, 10 μg/ml, read-out: Growth-inhibitory ratio) was 101%. For the same molecule, the IC50 ([6]; mouse melanoma cells (B16)) was 0.64 µg/mL (≈ 0.795 µM), the inhibition at 0.0006 µg/mL ([7]; Homo sapiens, SW1116, 0.0006 μg/ml, read-out: Growth-inhibitory ratio) was 2.29% and the inhibition at 0.0024 µg/mL ([7]; Homo sapiens, SW1116, 0.0024 μg/ml, read-out: Growth-inhibitory ratio) was -1.4%. The inhibition at 0.0098 µg/mL ([7]; Homo sapiens, SW1116, 0.0098 μg/ml, read-out: Growth-inhibitory ratio) was -0.24%, the inhibition at 0.039 µg/mL ([7]; Homo sapiens, SW1116, 0.039 μg/ml, read-out: Growth-inhibitory ratio) was 50.7% and the inhibition at 0.156 µg/mL ([7]; Homo sapiens, SW1116, 0.156 μg/ml, read-out: Growth-inhibitory ratio) was 50.3%. The inhibition at 0.625 µg/mL ([7]; Homo sapiens, SW1116, 0.625 μg/ml, read-out: Growth-inhibitory ratio) was 47.8%, the inhibition at 2.5 µg/mL ([7]; Homo sapiens, SW1116, 2.5 μg/ml, read-out: Growth-inhibitory ratio) was 47.2% and the inhibition at 10 µg/mL ([7]; Homo sapiens, SW1116, 10 μg/ml, read-out: Growth-inhibitory ratio) was 80.2%. The IC50 ([7]; human colonic cancer cells (SW1116), cells counted 65 hours and 96 hours after addition) was 2.8 µg/mL (≈ 3.48 µM), the LD50 [8] was 0.05 mg/kg and the “retardation of vascularization compared with control group” value ([9]; 1 μg or above) was “significantly retarded till the fourth day”. For the same molecule, the “retardation of vascularization compared with control group” value ([9]; 2.7 ug or above) was “till the eighth day”.
